Like-named read-outs stand apart in the source and are kept apart here.

Data set [1] is described as follows: In vitro cytotoxicity test on MRC-5 cells (resazurin). Particulars: human, MRC-5 primary fetal lung fibroblast cells, pH 7.4, MRC-5 cells, 72 h incubation, resazurin; two independent experiments. It is filed as cell-based, human. The method, then: (§1) L. infantum (MHOM/BR/2002/LPC-RPV) promastigotes were maintained in Schneider’s medium supplemented with 10% (v/v) fetal bovine serum (FBS, Gibco) and 100 U/mL penicillin and 100 μg/mL streptomycin at 28 °C. MRC-5 human primary fetal lung fibroblast cells were maintained in RPMI 1640 medium supplemented with 10% heat-inactivated fetal calf serum (FCS) and 25 mM HEPES under a 5% CO2 atmosphere at 37 °C and pH 7.4.
(§2) MRC-5 cells were seeded in 96-well plates at a density of 1 × 10^4 cells/well using 100 μL of medium. After 24 h, compounds were serially diluted in another set of 96-well plates starting from a concentration of 250 μM (11 dilution points plus the control), using 100 μL of complete culture medium per well. Subsequently, 100 μL of these diluted compounds were transferred to the seeded cells. Amphotericin B (Sigma-Aldrich) dissolved in DMSO was used as a control and diluted from an initial concentration of 0.5 μM. After 72 h of incubation, resazurin was added to a final concentration of 45 μM and incubated for 4 h before measuring fluorescence.

For data set [2], the system named is L. infantum (MHOM/BR/2002/LPC-RPV) promastigotes. The experiment in a line: In vitro antileishmanial activity against promastigotes (resazurin). It is filed as cell-based, Leishmania infantum. Conditions: 48 h at 28 °C, three independent experiments. The method, then:
as §1
To evaluate the effect of prioritized compounds on parasite viability, 4 × 10^6 promastigotes/mL were incubated in the presence of a series of 11 points from 200–0.195 or 50–0.04 μM plus control (0.1% DMSO) for 48 h at 28 °C to a final volume of 200 μL in 96-well microplate. Next, 20 μL of resazurin solution (0.39 mM) was added to each well and incubated for 4 h, and then fluorescence was recorded (570 nmex/595 nmem) on a microplate reader SpectraMax M5 (Molecular Devices, Sunnyvale, CA). The IC50 from three independent experiments was calculated from the dose–response curve fitted in a four-parameter logistic, nonlinear regression model using GraphPad Prism software (CA) v.8.

The test system of data set [3] is L. donovani. On the set-up: method as in ref 44 (Khare et al.). Conditions: Figure 10; ref 44 (Khare et al.); cited from earlier work.
For data set [4], the system named is macrophage. Also noted: method as in ref 44 (Khare et al.). Conditions: Figure 10; ref 44 (Khare et al.); cited from earlier work.
In data set [5] the test system is 3T3. On the set-up: method as in ref 44 (Khare et al.). Conditions: Figure 10; ref 44 (Khare et al.); cited from earlier work.
Data set [6] relates to MRC-5 human primary fetal lung fibroblast cells. Nature of the data set: In vitro cytotoxicity test on MRC-5 cells (resazurin). It is filed as cell-based. Particulars: for SI (selectivity index): ratio of CC50 (MRC-5) to IC50 (L. infantum). Here is the method: as §1, §2
Data set [7] relates to L. donovani. Also noted: method as in ref 45 (Wyllie et al.). Conditions: Figure 10; ref 45 (Wyllie et al.); cited from earlier work.
Data set [8] relates to THP-1. On the set-up: method as in ref 45 (Wyllie et al.). Conditions: Figure 10; ref 45 (Wyllie et al.); cited from earlier work.

`C[C@@H]1[C@H](O)[C@@H](C)/C=C/C=C/C=C/C=C/C=C/C=C/C=C/[C@H](O[C@@H]2O[C@H](C)[C@@H](O)[C@H](N)[C@@H]2O)C[C@@H]2O[C@](O)(C[C@@H](O)C[C@@H](O)[C@H](O)CC[C@@H](O)C[C@@H](O)CC(=O)O[C@H]1C)C[C@H](O)[C@H]2C(=O)O` [Amphotericin B, reference compound]: the CC50 at 72 h in data set [1] was greater than 0.67 µM. This molecule also returned a half-inhibitory concentration (IC50) in data set [2] (Leishmania infantum, 48 h) of 0.079 ± 0.001 µM.
On to `CC(C)OC(=O)Nc1cnc2nc(-c3cc(NC(=O)c4ccco4)ccc3Cl)cn2c1` [GNF2636], for which the IC50 in data set [3] was 0.35 µM. Besides, the CC50 in data set [4] was 14.1 µM; in data set [5] it was 3.5 µM.
Turning to `Cc1nc(C)c(C(=O)Nc2ccc(F)c(-c3nc4ncc(-c5ccccc5)cn4n3)c2)o1` [GNF3849], in data set [3], the IC50 was 0.071 µM.
Regarding `Cc1nc(C)c(C(=O)Nc2ccc(F)c(-c3nc4ncc(-c5ccccn5)cn4n3)c2)o1` [GNF6702], in data set [3], the IC50 was 0.0018 µM.
In data set [1], `O=C(Nc1ccc(Cl)c(-c2nc3ncccc3o2)c1)c1cccs1` [LC-15] displayed a CC50 at 72 h greater than 32.4 µM. In data set [6] (MRC-5 cells, 72 h incubation, resazurin, two independent experiments), this molecule yielded a CC50 of 32.4 ± 8.31 µM. Also, the “SI (selectivity index)” value in data set [6] is given as 30.9. In addition, the IC50 in data set [2] is 1.05 ± 0.37 µM; in data set [2] (Leishmania infantum, 48 h), 1.5 µM.
For `Cc1cc(NCc2ccncc2C)nc(N2CCCCC2)n1` [LC-20], in data set [2] (Leishmania infantum, 48 h), the IC50 was greater than 100 µM.
On the same count and under the same terms, with `Cc1nc2ccc(Cl)cn2c1C(=O)N1CCCC1c1ccccn1` (centres unmarked) [LC-25] the figure was greater than 100 µM.
Regarding `CN1CCC(Nc2nccc(-c3ccccn3)n2)C(Cc2ccccc2)C1` (centres unmarked) [LC-26], the CC50 at 72 h in data set [1] is 48.4 ± 16.9 µM. In data set [2] (Leishmania infantum, 48 h), the half-inhibitory concentration (IC50) is 11.9 ± 1.7 µM.
As to `Cc1nc(O)cc(C2CCN(c3nccc(-c4ccccn4)n3)CC2)n1` [LC-27], the half-maximal inhibitory concentration (IC50) in data set [2] (Leishmania infantum, 48 h) is greater than 100 µM.
In the case of `Fc1ccc(OCc2nc3cc(Cl)ccc3[nH]2)cc1` [LC-31], the CC50 at 72 h in data set [1] was 40.7 ± 4.33 µM. Moreover, the “SI (selectivity index)” value in data set [6] came out at 9.04. This molecule came in with a half-maximal inhibitory concentration (IC50) in data set [2] (Leishmania infantum, 48 h) of 4.51 ± 2.25 µM.
For `Cc1cc(C)nc(-n2nc(C)c3c2NC(=O)CC3c2ccc3c(c2)OCO3)n1` (centres unmarked) [LC-35], in that order: 145 ± 21.8 µM, 8.47 and 17.1 ± 2.89 µM.
In data set [2] (Leishmania infantum, 48 h), `O=C(Nc1cccnc1Cl)c1cc(-c2ccc3c(c2)OCO3)on1` [LC-36] gave a 50% inhibitory concentration (IC50) greater than 100 µM.
In turn, `Cc1ccc(C2CC(=O)Nc3c2c(C)nn3-c2nc(C)cc(C)n2)cc1` (centres unmarked) [LC-37] had a CC50 at 72 h in data set [1] greater than 250 µM. Moreover, the “SI (selectivity index)” value in data set [6] is given as greater than 15.9. This molecule gave an IC50 in data set [2] (Leishmania infantum, 48 h) of 15.6 ± 2.36 µM.
Take `CC(=O)Nc1ccc(S(=O)(=O)Nc2cc(C)nn2-c2ccccn2)cc1` [LC-38]: the IC50 in data set [2] (Leishmania infantum, 48 h) is greater than 100 µM.
For `O=C(Nc1ccc(F)c(-c2cn3cc(-c4ccccc4)cnc3n2)c1)N1CCCC1` [compound 6], in data set [7], the concentration for half-maximal inhibition (IC50) is 0.15 µM. The CC50 in data set [8] is greater than 50 µM.
For `O=C(Nc1ccc(F)c(-c2cn3nc(-c4ccccc4)cnc3n2)c1)N1CCCC1` [compound 7], in data set [7], the IC50 was 0.35 µM. For the same molecule, the CC50 in data set [8] was greater than 50 µM.

These data come from paper PMC11696749, “Deep Multitask Learning-Driven Discovery of New Compounds Targeting Leishmania infantum” (ACS Omega, 2024).
